The source of these data is US10047057B2, “Functionalized tyrosine kinase inhibitors modified with precious metal electrophiles and methods associated therewith” (WAKE FOREST UNIVERSITY, priority 2014, dated 2018).

One may read the IC50 as the concentration needed to halve the response being measured.

One experiment deals with NCI-H460 cells. The experiment can be described thus: Cell proliferation assay (Celltiter 96), NCI-H460. To be noted: Homo sapiens, NCI-H460, read-out: IC50 NCI-H460.
In another experiment the test system is NCI-H1975 cells. Kind of experiment: Cell proliferation assay (Celltiter 96), NCI-H1975. To be noted: read-out: IC50 NCI-H1975; Table 1; IC50 ± S.D., two experiments in triplicate; L858R/T790M EGFR.

Description for NCI-H1975 cells: (§1) The cell line NCI-H460 is a model of a large-cell carcinoma and is characterized by wild-type EGFR-TK. By contrast, NCI-H1975 adenocarcinoma cells harbor a point mutation (L858R) in exon 21 as well as a secondary mutation (T790M) at the bottom of the hydrophobic ATP binding pocket.
(§2) The human non-small cell lung cancer cell lines, NCI-H460 (large cell) and NCI-H1975 (adenocarcinoma), were obtained from the American Type Culture Collection (Rockville, Md., USA). […] Cells were incubated at a constant temperature at 37° C. in a humidified atmosphere containing 5% CO2 and were subcultured every 2 to 3 days in order to maintain cells in logarithmic growth. The cytotoxicity studies were carried out according to a standard protocol using the Celltiter 96 aqueous nonradioactive cell proliferation assay kit (Promega, Madison, Wis.). Stock solutions (10 mM) of all drugs were made in DMF and serially diluted with media prior to incubation with cancer cells. IC50 values were calculated from dose-response curves using sigmoidal curve fits in GraphPad Prism (GraphPad Software, La Jolla, Calif.).
Description for NCI-H460 cells: as §1, §2

In the case of `CCOc1cc2ncnc(Nc3ccc(F)c(Cl)c3)c2cc1N(C)C(=S)NC` [Compound 7, 1-(4-((3-Chloro-4-fluorophenyl)amino)-7-ethoxyquinazolin-6-yl)-1,3-dimethylthiourea], the IC50 in the experiment on NCI-H460 cells is 36 ± 4.4 µM; with NCI-H1975 cells, 51.7 ± 1.1 µM.
